Assay results published in BindingDB's records for patent US10022376 (Pfizer, 2018).

Tests used:
Assay in all cases: JAK Caliper Enzyme Assay at 1 mM ATP
Conditions in all cases: pH 7.4; 25 °C
[1] = target: Non-receptor tyrosine-protein kinase TYK2 (Homo sapiens, UniProt P29597)
Experimental: (§1) Test article was solubilized in dimethyl sulfoxide (DMSO) to a stock concentration of 30 mM. An 11-point half log dilution series was created in DMSO with a top concentration of 600 μM. […] The compound plates were diluted 1 to 60 resulting in a top final assay compound concentration of 10 μM and a 2% DMSO concentration.Test article and assay controls were added to a 384-well plate. Reaction mixtures contained 20 mM HEPES, pH 7.4, 10 mM magnesium chloride, 0.01% bovine serum albumin (BSA), 0.0005% Tween 20, 1 mM ATP and 1 μM peptide substrate. […] Enzyme concentrations and incubation times were optimized for each new enzyme preps and were modified slightly over time to ensure 20%-30% phosphorylation. The assays were stopped with a final concentration of 10 mM EDTA, 0.1% Coating Reagent and 100 mM HEPES, pH=7.4. The assay plates were placed on a Caliper Life Science Lab Chip 3000 (LC3000) instrument, and each well was sampled using appropriate separation conditions to measure the unphosphorylated and phosphorylated peptide.

[2] = target: Tyrosine-protein kinase JAK1 (Homo sapiens, UniProt P23458)
Sequence of Tyrosine-protein kinase JAK1 (P23458 whole entry): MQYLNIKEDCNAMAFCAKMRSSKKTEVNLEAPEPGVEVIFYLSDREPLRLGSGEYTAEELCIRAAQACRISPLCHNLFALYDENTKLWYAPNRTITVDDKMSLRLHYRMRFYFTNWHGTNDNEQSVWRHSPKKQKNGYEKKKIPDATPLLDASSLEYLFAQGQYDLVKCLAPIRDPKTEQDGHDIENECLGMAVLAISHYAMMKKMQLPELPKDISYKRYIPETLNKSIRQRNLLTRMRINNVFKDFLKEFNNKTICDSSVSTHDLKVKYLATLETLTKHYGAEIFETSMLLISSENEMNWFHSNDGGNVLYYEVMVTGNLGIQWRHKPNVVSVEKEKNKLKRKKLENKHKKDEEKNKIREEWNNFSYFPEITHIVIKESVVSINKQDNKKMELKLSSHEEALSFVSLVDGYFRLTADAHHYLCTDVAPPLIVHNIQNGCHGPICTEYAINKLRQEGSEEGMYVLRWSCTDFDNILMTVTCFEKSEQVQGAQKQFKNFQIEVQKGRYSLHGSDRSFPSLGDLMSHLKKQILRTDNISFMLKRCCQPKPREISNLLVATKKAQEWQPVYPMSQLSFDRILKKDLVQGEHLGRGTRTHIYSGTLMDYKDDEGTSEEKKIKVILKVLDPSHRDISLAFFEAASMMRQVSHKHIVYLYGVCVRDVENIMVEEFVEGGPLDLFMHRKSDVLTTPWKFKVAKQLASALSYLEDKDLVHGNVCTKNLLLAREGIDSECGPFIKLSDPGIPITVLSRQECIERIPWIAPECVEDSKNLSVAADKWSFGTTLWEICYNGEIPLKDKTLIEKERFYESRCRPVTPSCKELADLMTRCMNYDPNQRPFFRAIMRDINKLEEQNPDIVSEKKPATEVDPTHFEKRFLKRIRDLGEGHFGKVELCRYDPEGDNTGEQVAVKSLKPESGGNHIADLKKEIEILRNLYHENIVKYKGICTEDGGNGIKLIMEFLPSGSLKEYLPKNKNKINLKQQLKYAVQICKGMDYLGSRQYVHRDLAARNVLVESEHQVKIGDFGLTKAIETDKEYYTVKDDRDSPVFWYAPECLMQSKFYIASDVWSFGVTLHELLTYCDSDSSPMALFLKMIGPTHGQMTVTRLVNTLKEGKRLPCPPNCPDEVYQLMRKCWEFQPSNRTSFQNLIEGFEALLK
Experimental: as §1

[3] = target: Tyrosine-protein kinase JAK2 (Homo sapiens, UniProt O60674)
Sequence of Tyrosine-protein kinase JAK2 (O60674 whole entry): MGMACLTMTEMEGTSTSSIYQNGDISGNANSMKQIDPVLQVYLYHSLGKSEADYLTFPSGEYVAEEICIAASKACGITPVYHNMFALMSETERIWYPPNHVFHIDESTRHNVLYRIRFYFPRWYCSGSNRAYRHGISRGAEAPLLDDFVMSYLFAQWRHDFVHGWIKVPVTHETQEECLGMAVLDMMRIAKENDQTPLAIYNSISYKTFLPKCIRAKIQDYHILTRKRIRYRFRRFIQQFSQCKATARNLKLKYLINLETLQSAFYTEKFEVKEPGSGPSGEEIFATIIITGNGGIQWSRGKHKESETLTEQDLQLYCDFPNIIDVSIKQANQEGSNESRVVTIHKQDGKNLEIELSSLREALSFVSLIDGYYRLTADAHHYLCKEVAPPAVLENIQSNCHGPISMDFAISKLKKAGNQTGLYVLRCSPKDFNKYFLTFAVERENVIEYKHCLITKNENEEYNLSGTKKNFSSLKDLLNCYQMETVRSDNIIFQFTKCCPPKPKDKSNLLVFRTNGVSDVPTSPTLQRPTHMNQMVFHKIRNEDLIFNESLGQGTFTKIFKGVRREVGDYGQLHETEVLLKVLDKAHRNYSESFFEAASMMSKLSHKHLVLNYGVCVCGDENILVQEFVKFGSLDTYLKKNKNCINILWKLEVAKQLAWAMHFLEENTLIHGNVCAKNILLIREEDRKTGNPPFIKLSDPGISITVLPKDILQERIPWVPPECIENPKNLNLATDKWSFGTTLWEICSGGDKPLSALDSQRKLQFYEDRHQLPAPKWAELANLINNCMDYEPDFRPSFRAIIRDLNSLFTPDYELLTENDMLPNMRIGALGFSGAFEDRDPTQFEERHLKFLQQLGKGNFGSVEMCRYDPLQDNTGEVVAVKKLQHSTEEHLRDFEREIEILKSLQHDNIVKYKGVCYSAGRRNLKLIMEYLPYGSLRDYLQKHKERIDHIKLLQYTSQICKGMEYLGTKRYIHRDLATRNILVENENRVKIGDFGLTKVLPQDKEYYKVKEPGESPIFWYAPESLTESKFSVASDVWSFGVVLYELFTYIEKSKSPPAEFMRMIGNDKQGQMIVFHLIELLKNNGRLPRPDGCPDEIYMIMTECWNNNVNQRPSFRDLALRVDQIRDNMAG
Experimental: as §1

[4] = target: T1, Tyrosine-protein kinase JAK3 (Homo sapiens, UniProt P52333)
T1 sequence (P52333 whole entry): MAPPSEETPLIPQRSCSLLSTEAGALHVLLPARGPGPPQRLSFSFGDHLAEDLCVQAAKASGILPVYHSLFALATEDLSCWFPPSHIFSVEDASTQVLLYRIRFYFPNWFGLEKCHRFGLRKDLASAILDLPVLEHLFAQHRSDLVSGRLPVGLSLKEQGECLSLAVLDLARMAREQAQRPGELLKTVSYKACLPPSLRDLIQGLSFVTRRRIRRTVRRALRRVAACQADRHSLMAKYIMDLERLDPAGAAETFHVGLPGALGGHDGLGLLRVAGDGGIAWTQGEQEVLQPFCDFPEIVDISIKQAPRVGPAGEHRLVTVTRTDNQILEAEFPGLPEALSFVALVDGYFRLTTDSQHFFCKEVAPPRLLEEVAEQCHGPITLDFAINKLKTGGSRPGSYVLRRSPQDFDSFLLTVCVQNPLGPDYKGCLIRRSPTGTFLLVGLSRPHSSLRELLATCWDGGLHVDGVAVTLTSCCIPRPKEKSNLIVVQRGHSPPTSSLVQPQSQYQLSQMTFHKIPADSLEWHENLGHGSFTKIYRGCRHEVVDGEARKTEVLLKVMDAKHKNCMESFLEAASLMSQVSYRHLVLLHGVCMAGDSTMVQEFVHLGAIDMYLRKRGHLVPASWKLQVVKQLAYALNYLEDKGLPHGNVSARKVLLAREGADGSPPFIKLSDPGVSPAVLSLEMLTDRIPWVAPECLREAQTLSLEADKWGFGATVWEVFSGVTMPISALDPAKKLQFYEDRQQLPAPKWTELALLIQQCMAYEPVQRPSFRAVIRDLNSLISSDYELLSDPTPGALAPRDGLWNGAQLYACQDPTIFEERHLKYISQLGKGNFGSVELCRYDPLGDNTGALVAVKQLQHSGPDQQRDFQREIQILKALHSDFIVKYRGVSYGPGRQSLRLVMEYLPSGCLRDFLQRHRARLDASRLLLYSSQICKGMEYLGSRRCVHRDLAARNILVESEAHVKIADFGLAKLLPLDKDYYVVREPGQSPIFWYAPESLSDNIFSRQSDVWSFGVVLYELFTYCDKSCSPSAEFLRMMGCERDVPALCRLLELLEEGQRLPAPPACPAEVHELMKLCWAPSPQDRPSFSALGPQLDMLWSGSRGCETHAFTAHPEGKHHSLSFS
Experimental: as §1

Sequence of Non-receptor tyrosine-protein kinase TYK2 (P29597 whole entry): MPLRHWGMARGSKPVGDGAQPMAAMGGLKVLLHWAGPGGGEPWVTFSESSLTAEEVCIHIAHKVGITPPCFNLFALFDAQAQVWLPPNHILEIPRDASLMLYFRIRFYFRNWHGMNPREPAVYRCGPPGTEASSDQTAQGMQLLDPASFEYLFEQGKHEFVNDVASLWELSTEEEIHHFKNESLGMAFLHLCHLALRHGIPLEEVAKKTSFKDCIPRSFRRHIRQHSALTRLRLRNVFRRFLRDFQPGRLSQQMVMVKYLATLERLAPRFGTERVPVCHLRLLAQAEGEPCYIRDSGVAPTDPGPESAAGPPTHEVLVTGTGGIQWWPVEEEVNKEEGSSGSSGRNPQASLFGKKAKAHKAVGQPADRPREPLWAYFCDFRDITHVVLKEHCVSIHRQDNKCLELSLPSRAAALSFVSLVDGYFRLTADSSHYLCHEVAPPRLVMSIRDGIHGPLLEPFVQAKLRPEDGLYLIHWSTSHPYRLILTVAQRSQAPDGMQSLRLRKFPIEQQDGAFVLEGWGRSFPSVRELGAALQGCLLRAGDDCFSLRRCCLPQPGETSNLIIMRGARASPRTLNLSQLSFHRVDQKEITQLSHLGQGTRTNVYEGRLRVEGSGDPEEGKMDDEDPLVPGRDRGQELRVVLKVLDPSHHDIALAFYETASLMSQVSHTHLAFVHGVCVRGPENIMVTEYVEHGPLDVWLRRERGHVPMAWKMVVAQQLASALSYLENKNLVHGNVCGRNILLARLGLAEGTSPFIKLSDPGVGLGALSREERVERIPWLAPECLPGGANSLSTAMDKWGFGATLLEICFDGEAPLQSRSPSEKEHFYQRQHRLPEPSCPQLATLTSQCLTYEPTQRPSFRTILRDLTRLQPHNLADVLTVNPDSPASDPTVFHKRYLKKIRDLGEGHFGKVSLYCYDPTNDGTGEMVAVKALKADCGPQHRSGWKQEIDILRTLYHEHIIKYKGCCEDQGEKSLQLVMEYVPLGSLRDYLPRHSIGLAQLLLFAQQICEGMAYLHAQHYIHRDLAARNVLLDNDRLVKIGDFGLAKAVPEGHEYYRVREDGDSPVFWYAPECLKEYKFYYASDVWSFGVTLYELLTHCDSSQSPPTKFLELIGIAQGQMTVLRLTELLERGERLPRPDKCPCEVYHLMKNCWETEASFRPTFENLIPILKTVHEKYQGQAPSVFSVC

CN(c1cc(O)ccc1CNc1nc(-c2cc(F)c(O)cc2CC(F)(F)F)cc2[nH]nc(C(N)=O)c12)S(C)(=O)=O [US10022376, Example 99]
IC50 [1]: 426 nM | IC50 [2]: 6.8 nM

CNC(=O)c1n[nH]c2nc(-c3cc(F)c(O)cc3CC(F)(F)F)nc(NCc3ccccc3N(CCO)S(C)(=O)=O)c12 [US10022376, Example 100]
IC50 [1]: 1150 nM | IC50 [3]: 32.3 nM | IC50 [2]: 8.7 nM

CCN(c1ccc(O)cc1CNc1nc(-c2cc(F)c(O)cc2CC(F)(F)F)nc2[nH]nc(C(=O)NC)c12)S(=O)(=O)c1ccccc1 [US10022376, Example 75]
IC50 [4]: 755 nM | IC50 [1]: 1940 nM | IC50 [3]: 321 nM | IC50 [2]: 61.1 nM

CNC(=O)c1n[nH]c2nc(-c3cc(F)c(O)cc3CC(F)(F)F)nc(NCc3nccnc3N(C)S(C)(=O)=O)c12 [US10022376, Example 106]
IC50 [1]: 6110 nM | IC50 [3]: 283 nM | IC50 [2]: 41.2 nM

CN(c1ccc(O)cc1CNc1nc(-c2cc(F)c(O)cc2CC(F)(F)F)nc2[nH]nc(C(=O)Nc3ccc(NCCO)nc3)c12)S(C)(=O)=O [US10022376, Example 169]
IC50 [4]: 59.8 nM | IC50 [1]: 306 nM | IC50 [2]: 10.5 nM

CN(c1ccc(O)cc1CNc1nc(-c2cc(F)c(O)cc2CC(F)(F)F)cc2[nH]nc(C(=O)Nc3ccc(NCCO)nc3)c12)S(C)(=O)=O [US10022376, Example 164]
IC50 [4]: 91 nM | IC50 [1]: 24.2 nM | IC50 [3]: 22.2 nM | IC50 [2]: 4.5 nM

CC(=O)N1CCc2[nH]c(-c3n[nH]c4nc(-c5cc(F)c(O)cc5CC(F)(F)F)nc(NCc5cc(O)ccc5N(C)S(C)(=O)=O)c34)nc2C1 [US10022376, Example 105]
IC50 [4]: 51.2 nM | IC50 [1]: 14 nM | IC50 [3]: 14.4 nM

CCN(c1ccc(O)cc1CNc1nc(-c2cc(F)c(O)cc2CC(F)(F)F)nc2[nH]nc(C(N)=O)c12)S(=O)(=O)c1ccccc1 [US10022376, Example 97]
IC50 [1]: 2190 nM | IC50 [2]: 55.1 nM

CN(c1ccccc1CNc1nc(-c2cc(F)c(O)cc2CC(F)(F)F)cc2[nH]nc(C(N)=O)c12)S(C)(=O)=O [US10022376, Example 98]
IC50 [4]: 39.6 nM

CN(c1ccc(O)cc1CNc1nc(-c2cc(F)c(O)cc2CC(F)(F)F)nc2[nH]nc(C(N)=O)c12)S(=O)(=O)c1ccccc1 [US10022376, Example 96]
IC50 [4]: 248 nM | IC50 [1]: 1730 nM

CN(C)CCNC(=O)N1CCc2[nH]c(-c3n[nH]c4nc(-c5cc(F)c(O)cc5CC(F)(F)F)nc(NCc5cc(O)ccc5N(C)S(C)(=O)=O)c34)nc2C1 [US10022376, Example 110]
IC50 [1]: 35 nM | IC50 [3]: 26.9 nM | IC50 [2]: 5.4 nM
